Source: patent US12637465B2, “Pharmaceutically acceptable salts of sepiapterin” (PTC Therapeutics MP, Inc., priority 2018, dated 2026)

Tests used:
Assay type in all cases: physicochemical
[1] = Form change/disproportionation of residual solids by XRPD after suspension in water or Medisca Oral Mix; conditions: for Form change (residual solids, XRPD): RT, listed as phosphate salt and/or co-crystal
Method: The kinetic solubility was evaluated for nicotinate, phosphate, L-tartrate, and fumarate salts and/or co-crystals of sepiapterin in water and […] Oral Mix. X-ray powder diffraction (XRPD) was performed for the residual solids to identify form change/disproportionation. Solids were suspended into the media with target conc. of 7 mg/mL (calculated by freebase). […] Oral Mix after 1 hour. […] Oral Mix.

[2] = Kinetic solubility in water and Medisca Oral Mix (HPLC solubility, purity and pH of supernatant); conditions: RT; for Solubility: calculated using freebase, target conc. 7 mg/mL; for Solubility / Purity (area %) of supernatant / pH: listed as phosphate salt and/or co-crystal; for Purity (area %) of supernatant: for reference only
Method: The kinetic solubility was evaluated for nicotinate, phosphate, L-tartrate, and fumarate salts and/or co-crystals of sepiapterin in water and […] Oral Mix. X-ray powder diffraction (XRPD) was performed for the residual solids to identify form change/disproportionation. Solids were suspended into the media with target conc. of 7 mg/mL (calculated by freebase).

[3] = Solid form stability study of salts and/or co-crystals at 25° C./60% RH and 40° C./75% RH
Method: The stability of the prepared salts and/or co-crystals was analyzed after 1 and 2 weeks at 25° C. and 60% relative humidity and 40° C. and 75% relative humidity. […] None of the phosphate, tartrate, or nicotinate salts and/or co-crystals underwent a form change during the stability testing, and each of them retained greater than 97% purity over the two weeks of the study. In fact, both the tartrate and nicotinate both retained greater than 99% purity.

C[C@H](O)C(=O)C1=Nc2c(nc(N)[nH]c2=O)NC1 [Phosphate, sepiapterin]
Form change (residual solids, XRPD) ([1]; Medisca Oral Mix, 1 hr): Yes** | Form change (residual solids, XRPD) ([1]; Medisca Oral Mix, 4 hr): Yes** | Form change (residual solids, XRPD) ([1]; Medisca Oral Mix, 24 hr): Yes** | Form of the residual solids in Medisca Oral Mix ([1]; Medisca Oral Mix, after 1 hour): converted to freebase | Form change (residual solids, XRPD) ([1]; Water, 1 hr): Yes | Form change (residual solids, XRPD) ([1]; Water, 4 hr): Yes | Form change (residual solids, XRPD) ([1]; Water, 24 hr): Yes | Form of the residual solids in water ([1]; water, after 1 hour): converted to freebase | Observation ([2]; Medisca Oral Mix, 1 hr): Turbid | Solubility ([2]; Medisca Oral Mix, 1 hr): 2.5 mg/mL | Purity (area %) of supernatant ([2]; Medisca Oral Mix, 1 hr): 99.23 area % | pH ([2]; Medisca Oral Mix, 1 hr): 3.1 | Observation ([2]; Medisca Oral Mix, 4 hr): Turbid | Solubility ([2]; Medisca Oral Mix, 4 hr): 3.2 mg/mL | Purity (area %) of supernatant ([2]; Medisca Oral Mix, 4 hr): 98.95 area % | pH ([2]; Medisca Oral Mix, 4 hr): 3.1 | Observation ([2]; Medisca Oral Mix, 24 hr): Turbid | Purity (area %) of supernatant ([2]; Medisca Oral Mix, 24 hr): 87.63 area % | pH ([2]; Medisca Oral Mix, 24 hr): 3.1 | Observation ([2]; Water, 1 hr): Turbid | Purity (area %) of supernatant ([2]; Water, 1 hr): 89.92 area % | pH ([2]; Water, 1 hr): 2.1 | Observation ([2]; Water, 4 hr): Turbid | Purity (area %) of supernatant ([2]; Water, 4 hr): 89.52 area % | pH ([2]; Water, 4 hr): 2.1 | Observation ([2]; Water, 24 hr): Turbid | Purity (area %) of supernatant ([2]; Water, 24 hr): 82.64 area % | pH ([2]; Water, 24 hr): 2.1 | Stability compared with the other salts and/or co-crystals tested [3]: noticeably more stable than the others | Underwent a form change during the stability testing ([3]; 1 and 2 weeks, 25° C./60% RH and 40° C./75% RH): None | Form change ([3]; 1 week, 25° C./60% RH): No | Purity (Area %) ([3]; 1 week, 25° C./60% RH): 95.35 Area % | Purity vs. initial (%) ([3]; 1 week, 25° C./60% RH): 98.6% | Form change ([3]; 1 week, 40° C./75% RH): No | Purity (Area %) ([3]; 1 week, 40° C./75% RH): 95.91 Area % | Purity vs. initial (%) ([3]; 1 week, 40° C./75% RH): 99.1% | Form change ([3]; 2 weeks, 25° C./60% RH): No | Purity (Area %) ([3]; 2 weeks, 25° C./60% RH): 95.87 Area % | Purity vs. initial (%) ([3]; 2 weeks, 25° C./60% RH): 99.1% | Form change ([3]; 2 weeks, 40° C./75% RH): No | Purity (Area %) ([3]; 2 weeks, 40° C./75% RH): 94.50 Area % | Purity vs. initial (%) ([3]; 2 weeks, 40° C./75% RH): 97.7% | Purity (Area %) ([3]; Initial): 96.75 Area %

C[C@H](O)C(=O)C1=Nc2c(nc(N)[nH]c2=O)NC1 [Methanesulfonate, sepiapterin]
Form change ([3]; 1 week, 25° C./60% RH): No | Purity (Area %) ([3]; 1 week, 25° C./60% RH): 95.26 Area % | Purity vs. initial (%) ([3]; 1 week, 25° C./60% RH): 104.5% | Form change ([3]; 1 week, 40° C./75% RH): No | Purity (Area %) ([3]; 1 week, 40° C./75% RH): 88.68 Area % | Purity vs. initial (%) ([3]; 1 week, 40° C./75% RH): 97.3% | Form change ([3]; 2 weeks, 25° C./60% RH): No | Purity (Area %) ([3]; 2 weeks, 25° C./60% RH): 91.95 Area % | Purity vs. initial (%) ([3]; 2 weeks, 25° C./60% RH): 100.9% | Form change ([3]; 2 weeks, 40° C./75% RH): No | Purity (Area %) ([3]; 2 weeks, 40° C./75% RH): 85.97 Area % | Purity vs. initial (%) ([3]; 2 weeks, 40° C./75% RH): 94.3% | Purity (Area %) ([3]; Initial): 91.14 Area %

C[C@H](O)C(=O)C1=Nc2c(nc(N)[nH]c2=O)NC1 [Benzenesulfonate, sepiapterin]
Purity (Area %) ([3]; 1 week, 25° C./60% RH): 90.68 Area % | Purity vs. initial (%) ([3]; 1 week, 25° C./60% RH): 100.5% | Purity (Area %) ([3]; 1 week, 40° C./75% RH): 82.63 Area % | Purity vs. initial (%) ([3]; 1 week, 40° C./75% RH): 91.6% | Purity (Area %) ([3]; 2 weeks, 25° C./60% RH): 86.37 Area % | Purity vs. initial (%) ([3]; 2 weeks, 25° C./60% RH): 95.8% | Purity (Area %) ([3]; 2 weeks, 40° C./75% RH): 82.65 Area % | Purity vs. initial (%) ([3]; 2 weeks, 40° C./75% RH): 91.6% | Purity (Area %) ([3]; Initial): 90.20 Area %

C[C@H](O)C(=O)C1=Nc2c(nc(N)[nH]c2=O)NC1 [HCI, sepiapterin]
Form change ([3]; 1 week, 25° C./60% RH): No | Purity (Area %) ([3]; 1 week, 25° C./60% RH): 97.19 Area % | Purity vs. initial (%) ([3]; 1 week, 25° C./60% RH): 103.5% | Form change ([3]; 1 week, 40° C./75% RH): No | Purity (Area %) ([3]; 1 week, 40° C./75% RH): 89.25 Area % | Purity vs. initial (%) ([3]; 1 week, 40° C./75% RH): 95.0% | Form change ([3]; 2 weeks, 25° C./60% RH): No | Purity (Area %) ([3]; 2 weeks, 25° C./60% RH): 91.84 Area % | Purity vs. initial (%) ([3]; 2 weeks, 25° C./60% RH): 97.8% | Form change ([3]; 2 weeks, 40° C./75% RH): No | Purity (Area %) ([3]; 2 weeks, 40° C./75% RH): 84.16 Area % | Purity vs. initial (%) ([3]; 2 weeks, 40° C./75% RH): 89.6% | Purity (Area %) ([3]; Initial): 93.94 Area %

C[C@H](O)C(=O)C1=Nc2c(nc(N)[nH]c2=O)NC1 [Sulfate, sepiapterin]
Form change ([3]; 1 week, 25° C./60% RH): No | Purity (Area %) ([3]; 1 week, 25° C./60% RH): 95.22 Area % | Purity vs. initial (%) ([3]; 1 week, 25° C./60% RH): 97.8% | Form change ([3]; 1 week, 40° C./75% RH): No | Purity (Area %) ([3]; 1 week, 40° C./75% RH): 89.44 Area % | Purity vs. initial (%) ([3]; 1 week, 40° C./75% RH): 91.9% | Form change ([3]; 2 weeks, 25° C./60% RH): No | Purity (Area %) ([3]; 2 weeks, 25° C./60% RH): 93.46 Area % | Purity vs. initial (%) ([3]; 2 weeks, 25° C./60% RH): 96.0% | Form change ([3]; 2 weeks, 40° C./75% RH): No | Purity (Area %) ([3]; 2 weeks, 40° C./75% RH): 88.20 Area % | Purity vs. initial (%) ([3]; 2 weeks, 40° C./75% RH): 90.6% | Purity (Area %) ([3]; Initial): 97.33 Area %

C[C@H](O)C(=O)C1=Nc2c(nc(N)[nH]c2=O)NC1 [Toluenesulfonate, sepiapterin]
Form change ([3]; 1 week, 25° C./60% RH): No | Purity (Area %) ([3]; 1 week, 25° C./60% RH): 94.19 Area % | Purity vs. initial (%) ([3]; 1 week, 25° C./60% RH): 97.3% | Form change ([3]; 1 week, 40° C./75% RH): No | Purity (Area %) ([3]; 1 week, 40° C./75% RH): 89.11 Area % | Purity vs. initial (%) ([3]; 1 week, 40° C./75% RH): 92.0% | Form change ([3]; 2 weeks, 25° C./60% RH): No | Purity (Area %) ([3]; 2 weeks, 25° C./60% RH): 91.40 Area % | Purity vs. initial (%) ([3]; 2 weeks, 25° C./60% RH): 94.4% | Form change ([3]; 2 weeks, 40° C./75% RH): No | Purity (Area %) ([3]; 2 weeks, 40° C./75% RH): 88.12 Area % | Purity vs. initial (%) ([3]; 2 weeks, 40° C./75% RH): 91.0% | Purity (Area %) ([3]; Initial): 96.84 Area %

C[C@H](O)C(=O)C1=Nc2c(nc(N)[nH]c2=O)NC1 [Glycolate, sepiapterin]
Purity (Area %) ([3]; 1 week, 25° C./60% RH): 98.93 Area % | Purity vs. initial (%) ([3]; 1 week, 25° C./60% RH): 99.7% | Purity (Area %) ([3]; 1 week, 40° C./75% RH): 98.54 Area % | Purity vs. initial (%) ([3]; 1 week, 40° C./75% RH): 99.3% | Purity (Area %) ([3]; 2 weeks, 25° C./60% RH): 98.86 Area % | Purity vs. initial (%) ([3]; 2 weeks, 25° C./60% RH): 99.7% | Purity (Area %) ([3]; 2 weeks, 40° C./75% RH): 98.52 Area % | Purity vs. initial (%) ([3]; 2 weeks, 40° C./75% RH): 99.3% | Purity (Area %) ([3]; Initial): 99.19 Area %

C[C@H](O)C(=O)C1=Nc2c(nc(N)[nH]c2=O)NC1 [Gentisate, sepiapterin]
Purity (Area %) ([3]; 1 week, 25° C./60% RH): 97.66 Area % | Purity vs. initial (%) ([3]; 1 week, 25° C./60% RH): 103.5% | Purity (Area %) ([3]; 1 week, 40° C./75% RH): 96.89 Area % | Purity vs. initial (%) ([3]; 1 week, 40° C./75% RH): 102.7% | Purity (Area %) ([3]; 2 weeks, 25° C./60% RH): 97.00 Area % | Purity vs. initial (%) ([3]; 2 weeks, 25° C./60% RH): 102.8% | Purity (Area %) ([3]; 2 weeks, 40° C./75% RH): 93.37 Area % | Purity vs. initial (%) ([3]; 2 weeks, 40° C./75% RH): 102.1% | Purity (Area %) ([3]; Initial): 94.35 Area %

C[C@H](O)C(=O)C1=Nc2c(nc(N)[nH]c2=O)NC1 [Malonate, sepiapterin]
Purity (Area %) ([3]; 1 week, 25° C./60% RH): 99.39 Area % | Purity vs. initial (%) ([3]; 1 week, 25° C./60% RH): 99.9% | Purity (Area %) ([3]; 1 week, 40° C./75% RH): 99.14 Area % | Purity vs. initial (%) ([3]; 1 week, 40° C./75% RH): 99.7% | Purity (Area %) ([3]; 2 weeks, 25° C./60% RH): 99.23 Area % | Purity vs. initial (%) ([3]; 2 weeks, 25° C./60% RH): 99.8% | Purity (Area %) ([3]; 2 weeks, 40° C./75% RH): 97.81 Area % | Purity vs. initial (%) ([3]; 2 weeks, 40° C./75% RH): 98.3% | Purity (Area %) ([3]; Initial): 99.45 Area %
